In ChEMBL document CHEMBL3885881, “DrugMatrix”:

Species: Rattus norvegicus
Assay: DrugMatrix - Regimen: Daily Repeat
Assay type: toxicity, organism-based, Sprague-Dawley
Design: regimen Daily Repeat, gender Male, age 6-8 weeks
Conditions: in vivo, po, 1100 mg/kg, route oral GAVAGE, dose level High, vehicle .5 % CMC; for ABSOLUTE BASOPHIL / ABSOLUTE EOSINOPHIL / ABSOLUTE LYMPHOCYTE / ABSOLUTE MONOCYTE / ABSOLUTE SEGMENTED NEUTROPHIL / BASOPHIL / EOSINOPHIL / ERYTHROCYTE COUNT / HEMATOCRIT / HEMOGLOBIN / LEUKOCYTE COUNT / LYMPHOCYTE / MEAN CORPUSCULAR HEMOGLOBIN / MEAN CORPUSCULAR HEMOGLOBIN CONCENTRATION / MEAN CORPUSCULAR VOLUME / MONOCYTE / NEUTROPHIL / NUCLEATED RED BLOOD CELLS / PLATELET COUNT: tissue Blood; for ALANINE AMINOTRANSFERASE / ALBUMIN / ALKALINE PHOSPHATASE / ASPARTATE AMINOTRANSFERASE / BLOOD UREA NITROGEN / CARBON DIOXIDE / CHLORIDE / CHOLESTEROL / CREATINE PHOSPHOKINASE / CREATININE / GLUCOSE / LACTATE DEHYDROGENASE / LIPASE / PHOSPHORUS / POTASSIUM / SODIUM / TOTAL BILIRUBIN / TOTAL PROTEIN / URIC ACID: tissue Plasma

SMILES: COc1ccc(/C=C/C(=O)Nc2ccccc2C(=O)O)cc1OC
- ABSOLUTE BASOPHIL (72 h, time 3 day): 0 CELLS/uL
- ABSOLUTE EOSINOPHIL (72 h, time 3 day): 138 CELLS/uL
- ABSOLUTE LYMPHOCYTE (72 h, time 3 day): 17593 CELLS/uL
- ABSOLUTE MONOCYTE (72 h, time 3 day): 218.33 CELLS/uL
- ABSOLUTE SEGMENTED NEUTROPHIL (72 h, time 3 day): 4950.67 CELLS/uL
- BASOPHIL (72 h, time 3 day): 0%
- EOSINOPHIL (72 h, time 3 day): 0.67%
- ERYTHROCYTE COUNT (72 h, time 3 day): 5.25 x10E6/uL
- HEMATOCRIT (72 h, time 3 day): 33.23%
- HEMOGLOBIN (72 h, time 3 day): 12.93 G/DL
- LEUKOCYTE COUNT (72 h, time 3 day): 22.9 x10E3/uL
- LYMPHOCYTE (72 h, time 3 day): 77%
- MEAN CORPUSCULAR HEMOGLOBIN (72 h, time 3 day): 24.77 pg
- MEAN CORPUSCULAR HEMOGLOBIN CONCENTRATION (72 h, time 3 day): 38.97 G/DL
- MEAN CORPUSCULAR VOLUME (72 h, time 3 day): 63.5 fL
- MONOCYTE (72 h, time 3 day): 1%
- NEUTROPHIL (72 h, time 3 day): 21.33%
- NUCLEATED RED BLOOD CELLS (72 h, time 3 day): 0 /100WBC
- PLATELET COUNT (72 h, time 3 day): 1488 x10E3/uL
- ALANINE AMINOTRANSFERASE (72 h, time 3 day): 95 u/L
- ALBUMIN (72 h, time 3 day): 4.4 G/DL
- ALKALINE PHOSPHATASE (72 h, time 3 day): 368 u/L
- ASPARTATE AMINOTRANSFERASE (72 h, time 3 day): 112.67 u/L
- BLOOD UREA NITROGEN (72 h, time 3 day): 18.33 mg/dL
- CARBON DIOXIDE (72 h, time 3 day): 19.33 mmol/L
- CHLORIDE (72 h, time 3 day): 104 MEQ/L
- CHOLESTEROL (72 h, time 3 day): 47.33 mg/dL
- CREATINE PHOSPHOKINASE (72 h, time 3 day): 547 u/L
- CREATININE (72 h, time 3 day): 0.11 mg/dL
- GLUCOSE (72 h, time 3 day): 149.67 mg/dL
- LACTATE DEHYDROGENASE (72 h, time 3 day): 794 u/L
- LIPASE (72 h, time 3 day): 10 u/L
- PHOSPHORUS (72 h, time 3 day): 12 mg/dL
- POTASSIUM (72 h, time 3 day): 5.56 MEQ/L
- SODIUM (72 h, time 3 day): 142.2 MEQ/L
- TOTAL BILIRUBIN (72 h, time 3 day): 0.27 mg/dL
- TOTAL PROTEIN (72 h, time 3 day): 5.77 G/DL
- URIC ACID (72 h, time 3 day): 1.67 mg/dL
- ABSOLUTE BASOPHIL (120 h, time 5 day): 0 CELLS/uL
- ABSOLUTE EOSINOPHIL (120 h, time 5 day): 0 CELLS/uL
- ABSOLUTE LYMPHOCYTE (120 h, time 5 day): 8740 CELLS/uL
- ABSOLUTE MONOCYTE (120 h, time 5 day): 0 CELLS/uL
- ABSOLUTE SEGMENTED NEUTROPHIL (120 h, time 5 day): 2760 CELLS/uL
- BASOPHIL (120 h, time 5 day): 0%
- EOSINOPHIL (120 h, time 5 day): 0%
- ERYTHROCYTE COUNT (120 h, time 5 day): 5.33 x10E6/uL
- HEMATOCRIT (120 h, time 5 day): 31.3%
- HEMOGLOBIN (120 h, time 5 day): 12.1 G/DL
- LEUKOCYTE COUNT (120 h, time 5 day): 11.5 x10E3/uL
- LYMPHOCYTE (120 h, time 5 day): 76%
- MEAN CORPUSCULAR HEMOGLOBIN (120 h, time 5 day): 22.7 pg
- MEAN CORPUSCULAR HEMOGLOBIN CONCENTRATION (120 h, time 5 day): 38.7 G/DL
- MEAN CORPUSCULAR VOLUME (120 h, time 5 day): 58.8 fL
- MONOCYTE (120 h, time 5 day): 0%
- NEUTROPHIL (120 h, time 5 day): 24%
- NUCLEATED RED BLOOD CELLS (120 h, time 5 day): 2 /100WBC
- PLATELET COUNT (120 h, time 5 day): 1853 x10E3/uL
- ALANINE AMINOTRANSFERASE (120 h, time 5 day): 113 u/L
- ALBUMIN (120 h, time 5 day): 4.4 G/DL
- ALKALINE PHOSPHATASE (120 h, time 5 day): 238 u/L
- ASPARTATE AMINOTRANSFERASE (120 h, time 5 day): 86 u/L
- BLOOD UREA NITROGEN (120 h, time 5 day): 17 mg/dL
- CARBON DIOXIDE (120 h, time 5 day): 22 mmol/L
- CHLORIDE (120 h, time 5 day): 102 MEQ/L
- CHOLESTEROL (120 h, time 5 day): 58 mg/dL
- CREATINE PHOSPHOKINASE (120 h, time 5 day): 287 u/L
- CREATININE (120 h, time 5 day): 0.1 mg/dL
- GLUCOSE (120 h, time 5 day): 153 mg/dL
- LACTATE DEHYDROGENASE (120 h, time 5 day): 188 u/L
- LIPASE (120 h, time 5 day): 9 u/L
- PHOSPHORUS (120 h, time 5 day): 14.8 mg/dL
- POTASSIUM (120 h, time 5 day): 5.92 MEQ/L
- SODIUM (120 h, time 5 day): 141.9 MEQ/L
- TOTAL BILIRUBIN (120 h, time 5 day): 0.2 mg/dL
- TOTAL PROTEIN (120 h, time 5 day): 5.6 G/DL
- URIC ACID (120 h, time 5 day): 2.1 mg/dL
